The values below are quoted from earlier work in patent US20190314382A1, “COMPOUNDS AND PHARMACEUTICAL COMPOSITIONS THEREOF FOR THE TREATMENT OF INFLAMMATORY DISEASES” (Galapagos NV, priority 2016, published 2019).

This data set deals with MRL/lpr mice. Conditions: cited from earlier work.

As for `N#C/C(=C\c1ccc(O)c(O)c1)C(=O)NCc1ccccc1` [tyrphostin AG490], the “renal expression of monocyte chemotactic protein (MCP)-1, interferon (IFN)-γ and class II MHC” value is recorded as “significantly inhibited”; the “renal infiltration of T cells and macrophages” value is on record as “reduced”.
